# Reference: ChEMBL document CHEMBL1201862, “PubChem BioAssay data set” (2004)
# Calls of active or inactive are those of the source.
# Key:
# [1] = molecular target: Latent membrane protein 1 (Human herpesvirus 4 (strain B95-8), UniProt P03230); test: TES1-eGFP NF-kB reporter inhibition versus Tet-On dsRED, dose response, selectivity assay for LMP1 NF-kB inhibitor project, imaging, HEK293T, dual-color eGFP/dsRED, cherry-picks (AID 588398); type: functional, cell-based
# [2] = molecular target: T1, Corticotropin-releasing factor receptor 2/Corticotropin-releasing factor-binding protein (Homo sapiens, UniProt P24387+Q13324); test: activators of CRF receptor 2 with binding protein – uHTS hits, confirmation (AID 602473); type: functional; details: read-out: EC50_Mean
# T1 sequence (Q13324 whole entry): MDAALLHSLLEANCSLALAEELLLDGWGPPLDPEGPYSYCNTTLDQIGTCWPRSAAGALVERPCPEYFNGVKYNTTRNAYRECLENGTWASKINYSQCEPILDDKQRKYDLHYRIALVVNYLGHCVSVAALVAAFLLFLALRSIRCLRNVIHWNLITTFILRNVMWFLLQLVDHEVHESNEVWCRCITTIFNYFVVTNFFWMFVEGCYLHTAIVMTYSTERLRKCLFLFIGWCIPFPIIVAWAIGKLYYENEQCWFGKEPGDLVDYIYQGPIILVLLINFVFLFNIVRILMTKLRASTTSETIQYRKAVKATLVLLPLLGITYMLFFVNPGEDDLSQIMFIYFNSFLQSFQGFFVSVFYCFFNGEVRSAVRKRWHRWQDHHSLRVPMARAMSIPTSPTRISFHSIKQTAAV
# T1 sequence (P24387 whole entry): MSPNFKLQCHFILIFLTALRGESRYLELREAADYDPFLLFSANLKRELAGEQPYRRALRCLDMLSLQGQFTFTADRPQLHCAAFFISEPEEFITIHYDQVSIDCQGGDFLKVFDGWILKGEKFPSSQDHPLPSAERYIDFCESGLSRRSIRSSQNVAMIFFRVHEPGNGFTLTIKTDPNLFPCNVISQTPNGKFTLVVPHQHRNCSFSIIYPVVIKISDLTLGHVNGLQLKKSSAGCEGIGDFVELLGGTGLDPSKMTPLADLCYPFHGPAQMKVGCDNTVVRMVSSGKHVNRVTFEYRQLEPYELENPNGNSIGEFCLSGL
# [3] = cells; type: functional, cell-based
# [4] = cells; type: functional, cell-based; remark: listed apart in the source
# [5] = molecular target: Cytochrome P450 2C19 (Homo sapiens, UniProt P33261); test: Cytochrome panel assay with activity outcomes. Panel member name: p450-cyp2c19 Compounds with AC50 equal or less than 10 uM are considered active; type: functional; details: read-out: AC50
# [6] = molecular target: Beta-2 adrenergic receptor (Homo sapiens, UniProt P07550); test: beta2AR agonists driving receptor internalization, dose response, cell-based, FAP fluorogen, flow cytometry, cherry pick 1 (AID 588763); type: functional
# [7] = molecular target: Cytochrome P450 2D6 (Homo sapiens, UniProt P10635);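 also: CYP2D6 member of a cytochrome P450 panel assay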
# [8] = inhibitors of firefly luciferase expression or activity, dose response, H4 neuroglioma cells, luminescence (AID 1990); type: functional, cell-based
# [9] = insulin promoter down-regulators in MIN6 cells, imaging, high-content screening, mouse beta cells (AID 1628); type: functional
# [10] = Luminescence Cell-Based Dose Response HTS to Identify Inhibitors of 5'UTR Stem-Loop Driven Prion Protein mRNA Translation in H4 Neuroglioblastoma Cells. [Related pubchem assays: 1827 (Project Summary), 1813 (Primary HTS)]; type: functional
# [11] = cytotoxicity in MIN6 insulinoma cells, dose response, cytotoxicity control, cell-based, mouse insulinoma (AID 2122); type: functional;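 also: confirmatory high-throughput counterscreen run to flag cytotoxic compounds; mouse MIN-6 beta cells carrying an insulin promoter eGFP reporter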
# [12] = molecular target: T2, Heat shock factor protein 1 (Mus musculus, UniProt P38532); test: inhibition of MG132-induced HSE-luciferase signal, confirmation, cell-based, NIH3T3, luminescence, dose retest (AID 2382); type: functional;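 also: NIH3T3 fibroblasts with HSF1-driven luciferase reporter stressed by proteasome inhibitor MG132; luminescence from HSF1-driven luciferase expression after 8 hours of MG132 stress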
# T2 sequence (P38532 whole entry): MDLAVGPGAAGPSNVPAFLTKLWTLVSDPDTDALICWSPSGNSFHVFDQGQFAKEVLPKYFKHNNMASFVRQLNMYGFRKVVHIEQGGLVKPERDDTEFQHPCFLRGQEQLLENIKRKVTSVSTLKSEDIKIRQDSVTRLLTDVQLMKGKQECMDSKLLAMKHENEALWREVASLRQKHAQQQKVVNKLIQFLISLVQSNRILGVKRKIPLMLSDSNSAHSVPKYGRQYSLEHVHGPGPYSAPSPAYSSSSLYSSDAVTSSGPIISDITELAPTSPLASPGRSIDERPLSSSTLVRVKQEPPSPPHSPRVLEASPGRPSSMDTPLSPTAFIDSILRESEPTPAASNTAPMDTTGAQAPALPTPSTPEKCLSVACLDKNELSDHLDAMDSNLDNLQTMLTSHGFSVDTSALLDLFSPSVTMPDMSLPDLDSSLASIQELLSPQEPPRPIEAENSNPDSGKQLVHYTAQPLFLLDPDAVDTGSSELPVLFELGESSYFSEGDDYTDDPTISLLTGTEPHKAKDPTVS
# [13] = inhibitors of SNCA 5'UTR-driven reporter translation, confirmation, H4 neuroglioma cells, luminescence (AID 1988); type: functional, cell-based
# [14] = system: HEK293; test: inhibitors of LMP1-driven NF-kB reporter, dose response, cell-based, HEK293, luciferase, cherry-pick (AID 588343); type: functional; details: Homo sapiens
# [15] = system: INS1; test: beta cell apoptosis inhibitors, cytokine rescue, dose response, luminescence, retest (AID 449756); type: functional, cell-based; details: Rattus norvegicus;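 also: cell death triggered by IL-1 beta plus TNF-alpha plus IFN-gamma mixture; protective hits raise ATP signal compared with cytokine alone wells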
# [16] = molecular target: T3, Sentrin-specific protease 8 (Homo sapiens, UniProt Q96LD8); test: SENP8 protease inhibitors, SAR follow-up, biochemical, luminescence (AID 504501); type: functional
# T3 sequence (Q96LD8 whole entry): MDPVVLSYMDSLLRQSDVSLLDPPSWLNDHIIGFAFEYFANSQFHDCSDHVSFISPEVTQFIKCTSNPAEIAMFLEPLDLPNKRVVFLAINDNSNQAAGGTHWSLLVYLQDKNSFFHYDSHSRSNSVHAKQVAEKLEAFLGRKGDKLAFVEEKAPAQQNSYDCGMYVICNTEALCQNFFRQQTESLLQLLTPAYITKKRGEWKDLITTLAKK
# [17] = molecular target: T4, Caspase-3 (Homo sapiens, UniProt P42574); test: SAR Analysis of small molecule inhibitors of Sentrin-specific proteases (SENPs) using a Caspase-3 Selectivity assay. [Related pubchem assays (depositor defined):AID2540, AID2599, AID434973, AID489001]; type: functional
# T4 sequence (P42574 whole entry): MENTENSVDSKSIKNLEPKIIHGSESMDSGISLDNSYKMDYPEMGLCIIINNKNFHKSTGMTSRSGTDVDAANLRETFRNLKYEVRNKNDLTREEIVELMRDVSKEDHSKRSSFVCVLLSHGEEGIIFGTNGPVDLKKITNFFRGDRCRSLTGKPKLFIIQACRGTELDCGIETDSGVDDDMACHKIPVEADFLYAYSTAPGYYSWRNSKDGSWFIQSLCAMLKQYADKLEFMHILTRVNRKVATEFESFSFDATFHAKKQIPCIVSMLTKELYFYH
# [18] = molecular target: T5, Sentrin-specific protease 6 (Homo sapiens, UniProt Q9GZR1); test: SAR Analysis of small molecule inhibitors of Sentrin-specific protease 6 (SENP6) using a Luminescent assay. [Related pubchem assays (depositor defined):AID2582, AID2599]; type: functional
# T5 sequence (Q9GZR1 whole entry): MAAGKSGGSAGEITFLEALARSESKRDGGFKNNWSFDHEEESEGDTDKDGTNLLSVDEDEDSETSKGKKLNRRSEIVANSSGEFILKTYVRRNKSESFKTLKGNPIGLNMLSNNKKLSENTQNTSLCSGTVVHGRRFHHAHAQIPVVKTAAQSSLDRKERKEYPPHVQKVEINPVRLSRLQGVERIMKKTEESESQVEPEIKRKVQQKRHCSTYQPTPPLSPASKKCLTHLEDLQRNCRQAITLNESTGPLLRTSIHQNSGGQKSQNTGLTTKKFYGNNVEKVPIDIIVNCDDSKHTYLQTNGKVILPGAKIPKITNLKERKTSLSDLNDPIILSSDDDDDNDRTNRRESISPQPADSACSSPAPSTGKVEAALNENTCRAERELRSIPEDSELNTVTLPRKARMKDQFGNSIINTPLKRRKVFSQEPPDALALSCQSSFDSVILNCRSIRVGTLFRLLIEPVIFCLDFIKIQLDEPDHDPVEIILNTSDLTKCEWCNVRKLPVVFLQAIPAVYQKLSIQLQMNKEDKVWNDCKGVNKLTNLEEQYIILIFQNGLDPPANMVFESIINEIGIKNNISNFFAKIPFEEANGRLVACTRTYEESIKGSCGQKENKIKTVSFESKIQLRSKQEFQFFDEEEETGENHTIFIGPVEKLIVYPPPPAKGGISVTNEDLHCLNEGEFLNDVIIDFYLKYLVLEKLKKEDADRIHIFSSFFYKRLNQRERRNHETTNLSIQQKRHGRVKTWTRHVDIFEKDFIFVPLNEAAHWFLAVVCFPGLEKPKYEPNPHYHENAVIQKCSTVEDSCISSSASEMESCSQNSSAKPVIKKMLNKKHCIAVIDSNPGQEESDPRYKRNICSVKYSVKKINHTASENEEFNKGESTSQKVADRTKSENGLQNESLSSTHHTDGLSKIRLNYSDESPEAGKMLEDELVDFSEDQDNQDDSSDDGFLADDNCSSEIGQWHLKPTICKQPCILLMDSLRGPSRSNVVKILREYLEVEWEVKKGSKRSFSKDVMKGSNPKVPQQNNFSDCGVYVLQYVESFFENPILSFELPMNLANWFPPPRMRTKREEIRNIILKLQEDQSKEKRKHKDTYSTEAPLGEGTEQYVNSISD
# [19] = molecular target: T6, Sentrin-specific protease 7 (Homo sapiens, UniProt Q9BQF6); test: SENP7 protease inhibitors, SAR follow-up, biochemical, luminescence (AID 504497); type: functional
# T6 sequence (Q9BQF6 whole entry): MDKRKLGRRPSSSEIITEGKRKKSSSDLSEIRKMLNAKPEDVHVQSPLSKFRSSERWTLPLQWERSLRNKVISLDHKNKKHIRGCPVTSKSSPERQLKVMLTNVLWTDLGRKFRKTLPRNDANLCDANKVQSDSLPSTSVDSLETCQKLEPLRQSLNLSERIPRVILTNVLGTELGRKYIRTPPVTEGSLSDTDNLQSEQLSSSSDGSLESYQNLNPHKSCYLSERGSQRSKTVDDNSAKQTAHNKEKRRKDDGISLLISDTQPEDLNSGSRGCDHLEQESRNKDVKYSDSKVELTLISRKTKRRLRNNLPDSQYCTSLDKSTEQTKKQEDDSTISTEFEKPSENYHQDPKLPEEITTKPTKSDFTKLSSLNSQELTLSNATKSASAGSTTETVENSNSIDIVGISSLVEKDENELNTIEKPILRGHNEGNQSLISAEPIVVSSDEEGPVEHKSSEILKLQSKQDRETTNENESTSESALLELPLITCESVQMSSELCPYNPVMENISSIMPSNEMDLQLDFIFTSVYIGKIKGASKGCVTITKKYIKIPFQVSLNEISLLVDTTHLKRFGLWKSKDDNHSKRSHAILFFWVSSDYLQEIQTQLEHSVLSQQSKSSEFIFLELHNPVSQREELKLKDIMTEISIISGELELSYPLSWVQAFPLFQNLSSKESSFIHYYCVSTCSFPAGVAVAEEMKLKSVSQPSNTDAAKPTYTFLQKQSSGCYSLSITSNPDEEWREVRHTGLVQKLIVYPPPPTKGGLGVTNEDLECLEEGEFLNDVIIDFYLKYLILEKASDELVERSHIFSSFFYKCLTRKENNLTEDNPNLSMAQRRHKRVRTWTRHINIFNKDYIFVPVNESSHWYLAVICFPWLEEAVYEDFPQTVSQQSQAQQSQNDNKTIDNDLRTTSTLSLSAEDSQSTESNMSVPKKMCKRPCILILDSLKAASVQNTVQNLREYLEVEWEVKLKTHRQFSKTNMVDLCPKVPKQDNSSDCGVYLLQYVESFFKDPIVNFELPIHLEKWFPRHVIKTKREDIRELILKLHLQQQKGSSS
# Sequence of Latent membrane protein 1 (P03230 whole entry): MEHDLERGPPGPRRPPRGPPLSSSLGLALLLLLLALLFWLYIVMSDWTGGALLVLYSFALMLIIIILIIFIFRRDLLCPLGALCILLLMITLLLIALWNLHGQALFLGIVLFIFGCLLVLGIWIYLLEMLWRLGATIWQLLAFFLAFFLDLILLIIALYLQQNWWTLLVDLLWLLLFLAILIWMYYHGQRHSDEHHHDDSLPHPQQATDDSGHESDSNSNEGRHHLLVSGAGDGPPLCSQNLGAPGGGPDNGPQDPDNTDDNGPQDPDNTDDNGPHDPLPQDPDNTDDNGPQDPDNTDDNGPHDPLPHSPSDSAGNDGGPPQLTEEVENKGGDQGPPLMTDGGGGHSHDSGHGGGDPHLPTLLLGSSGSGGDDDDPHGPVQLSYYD
# Sequence of Cytochrome P450 2D6 (P10635 whole entry): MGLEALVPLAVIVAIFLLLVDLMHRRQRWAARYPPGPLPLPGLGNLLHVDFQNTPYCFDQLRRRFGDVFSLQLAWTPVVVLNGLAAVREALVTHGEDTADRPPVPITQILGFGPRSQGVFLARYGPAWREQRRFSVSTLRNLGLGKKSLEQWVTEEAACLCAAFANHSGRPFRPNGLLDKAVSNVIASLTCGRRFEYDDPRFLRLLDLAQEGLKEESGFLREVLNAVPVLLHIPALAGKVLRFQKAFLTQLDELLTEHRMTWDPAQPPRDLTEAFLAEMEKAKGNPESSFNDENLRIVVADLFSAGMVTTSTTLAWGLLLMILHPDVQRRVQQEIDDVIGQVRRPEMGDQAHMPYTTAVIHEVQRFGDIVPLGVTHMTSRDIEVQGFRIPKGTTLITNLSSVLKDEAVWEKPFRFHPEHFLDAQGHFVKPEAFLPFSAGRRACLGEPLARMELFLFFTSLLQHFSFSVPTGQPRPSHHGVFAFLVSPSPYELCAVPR
# Sequence of Beta-2 adrenergic receptor (P07550 whole entry): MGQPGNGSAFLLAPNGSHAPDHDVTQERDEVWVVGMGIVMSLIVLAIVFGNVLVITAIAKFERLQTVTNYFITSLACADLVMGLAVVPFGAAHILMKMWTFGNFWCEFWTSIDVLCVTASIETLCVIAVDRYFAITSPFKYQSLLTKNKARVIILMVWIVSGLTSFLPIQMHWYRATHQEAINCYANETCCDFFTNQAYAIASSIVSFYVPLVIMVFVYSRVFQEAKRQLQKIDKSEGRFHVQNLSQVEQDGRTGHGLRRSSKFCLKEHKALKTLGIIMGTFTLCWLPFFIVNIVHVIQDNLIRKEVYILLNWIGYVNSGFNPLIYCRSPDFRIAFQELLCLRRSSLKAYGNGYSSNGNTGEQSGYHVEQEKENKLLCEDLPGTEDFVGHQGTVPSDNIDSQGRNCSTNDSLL
# Sequence of Cytochrome P450 2C19 (P33261 whole entry): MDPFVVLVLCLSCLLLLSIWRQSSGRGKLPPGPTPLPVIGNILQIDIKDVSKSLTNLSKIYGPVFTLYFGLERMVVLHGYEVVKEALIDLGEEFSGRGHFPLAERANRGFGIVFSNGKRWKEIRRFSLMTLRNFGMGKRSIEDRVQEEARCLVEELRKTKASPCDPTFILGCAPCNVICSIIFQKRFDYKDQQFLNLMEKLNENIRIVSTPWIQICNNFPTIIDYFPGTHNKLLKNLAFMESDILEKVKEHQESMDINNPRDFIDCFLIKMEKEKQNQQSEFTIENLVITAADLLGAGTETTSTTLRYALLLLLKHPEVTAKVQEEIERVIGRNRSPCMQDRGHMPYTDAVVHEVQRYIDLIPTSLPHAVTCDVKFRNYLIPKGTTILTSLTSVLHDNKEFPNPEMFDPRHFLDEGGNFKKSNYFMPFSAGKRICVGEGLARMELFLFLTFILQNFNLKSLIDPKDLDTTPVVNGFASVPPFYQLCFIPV
structure (smiles),measurement,setting,value
O=c1c([N+](=O)[O-])cn(Cc2ccccc2)c(=O)n1Cc1ccccc1,AC50,[1],108 µM (active)
same,EC50,[2],> 53 µM (inactive)
COc1ccccc1-c1cc(C(F)(F)F)nc(S(=O)(=O)CCCC(=O)NC(C)C)n1,EC50,[3],> 350 µM (not active)
same,EC50,[4],51.6 µM (active)
same,AC50,[5],6.31 µM (inconclusive)
same,EC50,[6],9.33 µM (active)
same,AC50,[7],inconclusive
O=C(N/N=C/c1ccc[nH]1)c1ccc(COc2cccc3cccnc23)cc1,EC50,[8],8.34 µM (active)
same,IC50,[9],0.65 µM (active)
same,EC50,[10],> 120 µM (not active)
same,IC50,[11],0.574 µM (active)
same,EC50,[12],0.16 µM (active)
same,EC50,[13],9.79 µM (active)
same,AC50,[14],6.13 µM (active)
same,AC50,[1],9.15 µM (active)
same,AC50,[15],1.05 µM (active)
CS(=O)(=O)c1ccc(N/N=C/c2cn(Cc3ccccc3)c3ccccc23)cc1,IC50,[16],> 99 µM (inactive)
same,IC50,[17],> 99 µM (inactive)
same,IC50,[18],> 99 µM (inactive)
same,IC50,[19],> 99 µM (inactive)
